Values joined by “and” are separate entries in the source; they are usually repeats but may differ in a detail not shown here. Identical values can stand only once. Like-named read-outs stand apart in the source and are kept apart here.
Assays:
Assay type in all cases: in vivo
[1] = tested on: PR1 (PATHOGENESIS-RELATED PROTEIN 1) gene; assay: PR1 gene expression (qPCR) in sprayed Arabidopsis thaliana plants
[2] = tested on: PDF1.2 (PLANT DEFENSIN 1.2) gene; assay: PDF1.2 gene expression (qPCR) in sprayed Arabidopsis thaliana plants
Method: Wild-type Arabidopsis thaliana Col-0 seeds were grown in pots under a 16 hours day/8 hours night (long day) photoperiod, with a daytime temperature of 22° C., a night temperature of 20° C., and a relative humidity of 65%. Plants were sprayed with each inductor dissolved in water (inductors alone or in combination). 24 and 48 hours after treatment (hours post treatment, hpt), tissue samples were harvested and gene expression analysis of specific defense marker genes was performed, through quantitative PCR technology (qPCR).
The genes involved in plant defense analyzed were one or more of the following 5: • PR1 (PATHOGENESIS-RELATED PROTEIN 1). AGI code: AT2G14610 • PDF1.2 (PLANT DEFENSIN 1.2). AGI code: AT5G44420 • PR2 (PATHOGENESIS-RELATED PROTEIN 2; BETA-1,3-GLUCANASE 2). AGI code: AT3G57260 • PR5 (PATHOGENESIS-RELATED GENE 5). AGI code: AT1G75040 • ICS1 (ISO[…] 1). AGI code: AT1G74710
UBC21 (UBIQUITIN-CONJUGATING ENZYME 21; AGI code: AT5G25760) was the normalization (or housekeeping) gene used.
PR1 (Salicylic acid-signaling pathway marker gene) and PDF1.2 (Jasmonic acid-signaling pathway marker gene) are important marker genes of plant defense system, because they are necessary to plant defense mechanisms activation.
In order to evaluate if there is a synergistic effect between different possible combinations, Limpel/Colby's formula was used. This formula is used to calculated the expected activity of combinations containing two active ingredients, A and B: Expected (E)=A+B−(A×B/100) Wherein, • A=observed gene activation of active component A at the same concentration as used in the mixture • B=observed gene activation of active component B at the same concentration as used in the mixture
When the activity found experimentally (observed) is greater than the value of E, said activity should be considered as being a synergistic effect, and Synergy Factor (F) is >1: Synergy Factor (F)=Observed activity/Expected activity (E)
In the following: • OV: Observed gene activation value • CEV: Colby expected gene activation value with the mixture [CEV=A+B−(A×B/100)] Synergy Factor (F)=OV(A+B)/CEV(A+B) • hpt: hours post treatment.

[3] = tested on: Podosphaera xanthii on cucumber; assay: Powdery mildew on cucumber, greenhouse disease control
Method: (§1) The experiments were carried out under controlled greenhouse conditions. The effects of temperature, humidity and light conditions in the greenhouse chambers were adjusted according to host plants and pathogens needs.
(§2) The efficacy or disease control value (W) was calculated according to Abbott's formula: W=(1−x/y)×100 wherein • x=percentage of fungal or bacterial infection in treated plants • y=percentage of fungal or bacterial infection in untreated control plants
(§3) An efficacy of 0 means the infection level of the treated plants corresponds to that of the untreated control plants; and efficacy of 100 means that the treated plants are not infected.
(§4) In order to evaluate if there is a synergistic effect between different possible combinations, Limpel/Colby's formula was used.
(§5) Synergy Factor (F)=OV(A+B)/CEV(A+B) 1. Podosphaera xanthii on Cucumber
1.2-leaf stage cucumber plants (cv. Suzunari-suyo), grown in pots under controlled conditions, were treated by spraying of the leaves or by soil drenching with the mixture in question, dispersed in an aqueous solution. Plants were kept in a growth chamber at 25° C. and 80% RH. After 7 days, plants were inoculated and infected with a spore suspension of Podosphaera xanthii, and, 10 days after pathogen inoculation, infection levels were assessed and percentages of disease control and expected values were calculated according to Abbott's and Colby's formulas, respectively.

[4] = tested on: Pyricularia oryzae on rice; conditions: soil drench
[5] = tested on: Pseudomonas cannbina pv. alisalensis on Chinese cabbage
[6] = tested on: Phakopsora pachyrhizi on soybean; assay: Asian rust on soybean, greenhouse disease control; conditions: B alone 100 ppm, leaf spray
Method: as §1, §2, §3
In order to evaluate if there is a synergistic effect between different possible combinations, Limpel/Colby's formula was used. This formula is used to calculated the expected disease control value of combinations containing two active ingredients, A and B: Expected (E)=A+B−(A×B/100) wherein, • A=observed disease control value of component A, at the same concentration as used in the mixture • B=observed disease control value of component B, at the same concentration as used in the mixture
When the disease control value found experimentally (observed) with the combination is greater than the value of E, said activity should be considered as being a synergistic effect, and Synergy Factor (F) is >1: Synergy Factor (F)=Observed disease control value/Expected disease control value (E)
As above, in the following Tables: • OV: Observed control value • CEV: Colby expected control value with the mixture [CEV=A+B−(A×B/100)] Synergy Factor (F)=OV(A+B)/CEV(A+B) 1. Podosphaera xanthii on Cucumber
1.5-leaf stage soybean plants (cv. Tsurunoko-daizu), grown in pots under controlled conditions, were treated by spraying of the leaves with the mixture in question, dispersed in an aqueous solution. After 7 days, plants were inoculated and infected with a spore suspension of Phakopsora pachyrhizi(1×10^6 uredospores/ml), and they were kept in a growth chamber at 25° C. and 90% RH. 10 days after pathogen inoculation, infection levels were assessed and percentages of disease control and expected values were calculated according to Abbott's and Colby's formulas, respectively.

[7] = tested on: Pseudomonas syringae pv. Lachrymans on cucumber; assay: Bacterial spot on cucumber, greenhouse disease control; conditions: spray, 100 ppm
Method: as §1, §2, §3, §4, §5
1.2-leaf stage cucumber plants (cv. Suzunari-suyo), grown in pots under controlled conditions, were treated by spraying of the leaves with the mixture in question, dispersed in an aqueous solution. After 2 days, plants were inoculated and infected with an aqueous suspension of Pseudomonas syringae pv. Lachrymans (1×10^8 cfu/ml), and they were kept in a growth chamber at 25° C. and 90% RH. 7 days after pathogen inoculation, infection levels were assessed and percentages of disease control and expected values were calculated according to Abbott's and Colby's formulas, respectively.

[8] = tested on: Colletotrichum orbiculare on cucumber; assay: Anthracnose on cucumber, greenhouse disease control; conditions: spray; 100 ppm
[9] = Combinations with Chitooligosaccharides
[10] = Test 4 (spray treatment), 100 ppm
[11] = Test 3 (soil drench treatment), 100 ppm

O=C(O)c1ccccc1O [Salicylic acid, salicylic acid]
PR1 gene activation OV A or B (single component) ([1]; 100 ppm, 24 hpt): 87.08 n-fold | PR1 gene activation OV A or B (single component) ([1]; 100 ppm, 48 hpt): 58.77 n-fold | PDF1.2 gene activation OV A or B (single component) ([2]; 100 ppm, 24 hpt): 12.69 n-fold | PDF1.2 gene activation OV A or B (single component) ([2]; 100 ppm, 48 hpt): 7.80 n-fold

CC(N)CC(=O)O (stereo not drawn) [Beta-Aminobutyric acid, beta-aminobutyric acid]
PR1 gene activation OV A or B (single component) ([1]; 100 ppm, 24 hpt): 2.53 n-fold | PR1 gene activation OV A or B (single component) ([1]; 100 ppm, 48 hpt): 8.50 n-fold | PDF1.2 gene activation OV A or B (single component) ([2]; 100 ppm, 48 hpt): 4.37 n-fold | Percentage of disease control OV A or B (single component) ([3]; Test 4 (spray treatment), 300 ppm): 20% | Percentage of disease control B ([4]; Test 3, B alone 300 ppm): 0% | Percentage of disease control B ([5]; in vivo): 46% | Percentage of disease control B [6, 9]: 0%

O=C(O)CCCCCCCC(=O)O [Azelaic acid, azelaic acid]
PDF1.2 gene activation OV A or B (single component) ([2]; 200 ppm, 24 hpt): 331.01 n-fold | PDF1.2 gene activation OV A or B (single component) ([2]; 200 ppm, 48 hpt): 87.56 n-fold

Cc1ccc(NC(=O)c2snnc2C)cc1Cl [Tiadinil, tiadinil]
PDF1.2 gene activation OV A or B (single component) ([2]; 45 ppm, 24 hpt): 189.33 n-fold | Percentage of disease control OV A or B (single component) [3, 10]: 0% | Percentage of disease control B ([4]; Test 3, B alone 100 ppm): 80%

O=C(O)c1cc(Cl)nc(Cl)c1 [2,6-Dichloroisonicotinic acid, 2,6-dichloro-isonicotinic acid]
PR1 gene activation OV A or B (single component) ([1]; 75 ppm, 24 hpt): 15.45 n-fold | PR1 gene activation OV A or B (single component) ([1]; 75 ppm, 48 hpt): 26.64 n-fold | PDF1.2 gene activation OV A or B (single component) ([2]; 75 ppm, 24 hpt): 5.13 n-fold | PDF1.2 gene activation OV A or B (single component) ([2]; 75 ppm, 48 hpt): 1.68 n-fold | Percentage of disease control OV A or B (single component) ([5]; 300 ppm): 83% | Percentage of disease control B ([5]; in vivo): 83%

O=S1(=O)N=C(OCc2snc(Cl)c2Cl)c2ccccc21 [Dichlobentiazox]
Percentage of disease control OV A or B (single component) [3, 11]: 0% | Percentage of disease control OV A or B (single component) ([5]; 100 ppm): 0% | Percentage of disease control B ([5]; in vivo): 0% | Percentage of disease control B [6, 9]: 53%

N#Cc1ccccc1NC(=O)c1snc(Cl)c1Cl [Isotianil, isotianil]
PDF1.2 gene activation OV A or B (single component) ([2]; 30 ppm, 24 hpt): 18.22 n-fold | PDF1.2 gene activation OV A or B (single component) ([2]; 30 ppm, 48 hpt): 57.21 n-fold | Percentage of disease control OV A or B (single component) [3, 10]: 10% | Percentage of disease control B ([4]; Test 3, B alone 100 ppm): 77% | Percentage of disease control B ([6]; Combinations with Carrageenan): 20% | Percentage of disease control B [6, 9]: 20% | Percentage of disease control B ([6]; Combinations with Laminarin): 20%

2-amino-3,5-dichlorobenzoic acid (3,5-dichloroanthranilic acid)
PR1 gene activation OV A or B (single component) ([1]; 25 ppm, 24 hpt): 4.61 n-fold | PR1 gene activation OV A or B (single component) ([1]; 25 ppm, 48 hpt): 4.14 n-fold | PDF1.2 gene activation OV A or B (single component) ([2]; 25 ppm, 48 hpt): 5.70 n-fold

CSC(=O)c1cccc2nnsc12 [Acibenzolar-S-methyl, acibenzolar-S-methyl]
PR1 gene activation OV A or B (single component) ([1]; 37.5 ppm, 24 hpt): 32.19 n-fold | PR1 gene activation OV A or B (single component) ([1]; 37.5 ppm, 48 hpt): 72.31 n-fold | Percentage of disease control OV A or B (single component) ([7]; Test 4): 86% | Percentage of disease control B ([4]; Test 2, B alone 4 ppm): 29% | Percentage of disease control B ([4]; Test 2, B alone 10 ppm): 49% | Percentage of disease control B ([4]; Test 2, B alone 20 ppm): 87% | Percentage of disease control B ([4]; Test 2, B alone 40 ppm): 83% | Percentage of disease control B ([4]; Test 2, B alone 100 ppm): 70% | Percentage of disease control B ([4]; Test 3, B alone 100 ppm): 71% | Percentage of disease control B ([4]; Test 4, B alone 100 ppm): 71% | Percentage of disease control B ([5]; Combinations with Carrageenan, Test 1, B alone 100 ppm, leaf spray): 85% | Percentage of disease control B ([5]; Combinations with Chitooligosaccharides, Test 2, B alone 4 ppm, leaf spray): 5% | Percentage of disease control B ([5]; Combinations with Chitooligosaccharides, Test 2, B alone 10 ppm, leaf spray): 18% | Percentage of disease control B ([5]; Combinations with Chitooligosaccharides, Test 2, B alone 20 ppm, leaf spray): 12% | Percentage of disease control B ([5]; Combinations with Chitooligosaccharides, Test 2, B alone 40 ppm, leaf spray): 84% | Percentage of disease control B ([5]; Combinations with Chitooligosaccharides, Test 2, B alone 100 ppm, leaf spray): 89% | Percentage of disease control B ([5]; Combinations with Chitooligosaccharides, Test 3, B alone 10 ppm, leaf spray): 35% | Percentage of disease control B ([5]; Combinations with Chitooligosaccharides, Test 3, B alone 20 ppm, leaf spray): 17% | Percentage of disease control B ([5]; Combinations with Chitooligosaccharides, Test 3, B alone 40 ppm, leaf spray): 95% | Percentage of disease control B ([5]; Combinations with Chitooligosaccharides, Test 3, B alone 100 ppm, leaf spray): 98% | Percentage of disease control OV A or B (single component) [8]: 92%

CC/C=C\CC1C(=O)CCC1CC(=O)OC (centres unmarked) [Methyl jasmonate, methyl jasmonate]
PR1 gene activation OV A or B (single component) ([1]; 600 ppm, 24 hpt): 1.10 n-fold | PR1 gene activation OV A or B (single component) ([1]; 600 ppm, 48 hpt): 36.36 n-fold | PDF1.2 gene activation OV A or B (single component) ([2]; 600 ppm, 24 hpt): 6.93 n-fold

Flagellin
PR1 gene activation OV A or B (single component) ([1]; 2.3 ppm, 24 hpt): 2.05 n-fold | PR1 gene activation OV A or B (single component) ([1]; 2.3 ppm, 48 hpt): 5.89 n-fold | PDF1.2 gene activation OV A or B (single component) ([2]; 2.3 ppm, 24 hpt): 1.44 n-fold | PDF1.2 gene activation OV A or B (single component) ([2]; 2.3 ppm, 48 hpt): 0.94 n-fold

Cc1ncc(C[n+]2csc(CCO)c2C)c(N)n1 [Vitamin B1, vitamin B1]
PR1 gene activation OV A or B (single component) ([1]; 8000 ppm, 24 hpt): 8.35 n-fold | PDF1.2 gene activation OV A or B (single component) ([2]; 8000 ppm, 24 hpt): 231.82 n-fold | PDF1.2 gene activation OV A or B (single component) ([2]; 8000 ppm, 48 hpt): 319.68 n-fold

C=CCOC1=NS(=O)(=O)c2ccccc21 [Probenazole]
PR1 gene activation OV A or B (single component) ([1]; 100 ppm, 48 hpt): 102.9 n-fold and 102.90 n-fold | Percentage of disease control OV A or B (single component) [3, 11]: 0% | Percentage of disease control OV A or B (single component) ([7]; Test 2): 45% | Percentage of disease control OV A or B (single component) ([7]; Test 3): 45% | Percentage of disease control B ([4]; Test 3, B alone 100 ppm): 71% | Percentage of disease control B ([4]; Test 4, B alone 100 ppm): 71% | Percentage of disease control OV A or B (single component) ([5]; 100 ppm): 25% | Percentage of disease control B ([5]; in vivo): 25% | Percentage of disease control B [6, 9]: 7% | Percentage of disease control B ([6]; Combinations with Laminarin): 7%
